Measured values from a melting point compilation (Tetko et al.; mined from patent text by program, amines drawn as free bases though some values may be those of a salt).

Compound	melting point [°C]
CNc1cc(F)ccc1C(=O)Cc1nnnn1C	132 to 134
CCc1cc(C#N)cc(C(=O)Nc2ccn(C)n2)n1	164
Cc1ncc(C(O)=S)cc1OC1CCCC1	177 to 178
CC(C)Cc1ccc(CCc2cc3c(s2)NC(=S)CN=C3c2ccccc2Cl)cc1	180 to 182
COc1cc(OC)c(S(=O)(=O)Cl)cc1-c1nc2nccnc2[nH]1	294 to 296
O=C1CCN(Cc2ccc(C(F)(F)F)cc2C(F)(F)F)CC1C(c1ccc(F)cc1)c1ccc(F)cc1 (stereo unspecified)	104 to 105
CCCn1c(COCC)nc2c(N)nc3ccc(OC4CCN(C(=O)OC(C)(C)C)CC4)cc3c21	180 to 181
COc1cc([N+](=O)[O-])c(N)cc1O	208
NS(=O)(=O)c1cccc(-c2cccc(-c3nc(-c4ccc(Cl)c(Cl)c4)cc(C(F)(F)F)n3)c2)c1	241
CCC(C)(CC)c1ccc(NC(=O)c2c(OC)cccc2OC)nn1	145 to 147
Cc1oc(-c2ccccc2)nc1COc1ccc(CON=C(CCCCCCC(=O)O)c2ccc(F)cc2)cc1	56 to 57
COc1nc(C)nc(NC(=O)NS(=O)(=O)c2ccccc2OC(F)F)n1	140 to 141
O=c1cnc(-c2c(F)cccc2F)n[nH]1	219 to 226
CCOC(=O)C1(c2ccc(OCc3ccccc3)cc2)CC2=C(C1)C(=O)C(OC)=C(OC)C2=O	94 to 97
O=C(CCN1CCN(c2cccc(C(F)(F)F)c2)CC1)c1ccc2oc3ccc(C(=O)CCN4CCN(c5cccc(C(F)(F)F)c5)CC4)cc3c(=O)c2c1	166 to 167
O=C(NCC(=O)N(c1ccccc1)c1ccccc1)Nc1cccc(O)c1	244
CCCCC(=O)Nc1ccc(C(=O)CCC(=O)O)cc1	153 to 155
Cc1cc2c(c(C)c1[N+](=O)[O-])OCO2	75 to 76
O=C(NCCc1ccc(F)cc1)OCC1CCCCC1	44 to 45
CC(C)c1ccc(C(O)C(=O)O)cc1 (stereo unspecified)	156 to 157
CCCC(=Cc1ccsc1)[N+](=O)[O-]	52 to 54.5
CC(C)(C)OC(=O)N1CCC(O)(CS(=O)(=O)NC(c2ccccc2)c2ccccc2)CC1	121 to 123
COc1cc(-c2nc3ccccc3n2Cc2ccccc2F)cc(OC)c1OC	154
Cc1c(NC(=O)c2ccc(OCc3ccc(Cl)cc3)cc2)ccc2cc(CN3CCCC3)cnc12	167 to 168

Compound	melting point [°C]
COc1cc2c(cc1OC)C1Cc3cc4c(cc3CC(=O)N1CC2)OCO4 (stereo unspecified)	207 to 209
CCc1ccc(-c2nc(Cl)c3ccccc3n2)cc1	75.5 to 76.5
NC(=O)C(CC1CCCC1)c1ccc(Cl)c([N+](=O)[O-])c1 (stereo unspecified)	112 to 114
S=c1[nH]c2c(n1-c1ccccn1)CCCC2	203 to 204
O=C1c2ccccc2C(=O)N1CC(=O)N1c2ccccc2N(Cc2ccc(OCc3ccccc3)cc2)C(=O)[C@H]2CCC[C@H]21 (relative stereo)	179 to 181
COc1cc(C)n2nc(SCc3ccccc3)nc2n1	112 to 115
CCOC(=O)C1=C(C)N=C(SCc2ccc(OC)cc2)N(C(=O)OCC)C1c1cccc(OC)c1 (stereo unspecified)	79 to 81
CCNC(=O)c1ccc(F)c(NC(=O)c2cc(C(C)(C)C)nn2CC)c1	188
COc1cc(OC)c2c(=O)[nH]c(-c3ccc(N4CCC(O)CC4)cc3)nc2n1	284 to 286
O=C(Nc1cccc(C(F)(F)F)c1F)c1cccnc1NCc1ccc(=O)[nH]c1	219 to 222
COC(=O)c1cccn2ccnc12	67 to 69
CCOc1ccc(-c2[nH]c3ccc(OCc4ccccc4)cc3c2C)cc1	143 to 145
CC(=C1SCCCS1)c1ccc(N2CCN(C)CC2)cc1	91 to 92
COc1cccc(-c2ccc(C3C(CCC(O)c4ccc(F)cc4)C(=O)N3c3ccc(F)cc3)cc2)c1OC (stereo unspecified)	101
Cc1cccc(NC(=O)NCC(=O)N(CC(=O)N2CCC3(CC2)OCCO3)c2ccccc2)c1	130
Cc1ccc(-c2cc3cc(C4=NNC(=O)CC4)ccc3[nH]2)cc1	266 to 268
CC(C)(C)OC(=O)Nc1ccc(C#Cc2nccs2)cc1NC(=O)CC(=O)c1cccc(C#N)c1	131
Cc1csc2ccc3[nH]c4c(c3c12)CNCC4	234
Cc1ccc(-c2ccc(Cl)cc2Cl)c(=O)[nH]1	266 to 268
Nc1ccc(Oc2ccccc2C(=O)Oc2ccccc2)cc1	102
COc1cc(C(=O)NS(=O)(=O)c2ccccc2)ccc1Cc1nn(C)c2ccc(NC(=O)OC3CCCC3)cc12	145
CCC(C)C1CCCCC1NC(=O)c1sc(C)nc1C(F)(F)F (stereo unspecified)	112 to 113
COC(=O)C(C)(C)NS(=O)(=O)c1ccc2c(Cl)cnc(Cl)c2c1	160 to 161
Cc1ccc(SCC(=O)O)o1	35 to 36

Compound	melting point [°C]
ClCc1cccc(OCc2ccc3ccccc3n2)c1	39 to 43
CC(Oc1ccc(Oc2ncc(Cl)cc2Cl)cc1)C(=O)N1CCCO1 (stereo unspecified)	106 to 108
CCCCCCCCCCCc1nccn1-c1nc(-c2ccc(Cl)cc2)c(CCCOc2ccccc2OC)o1	53 to 54
Cc1cc(I)cc2c(=O)[nH]oc12	232 to 233
O=C1CC(=O)C2C3C=CC(C3)C12 (stereo unspecified)	183
Cc1cc(C)c(C2=C(OC(=O)C(C)(C)C)CN(C)C2=O)c(C)c1	75
COc1ccc(C(=O)c2ccccc2)cc1Cl	87
CCN(CC)CCOC(=O)c1nn(-c2ccc(Cl)cc2)c2c1CCc1ccccc1-2	102 to 103
COc1ccc(-c2nc(CCOc3ccc(CC4OC(=O)NC4=O)cc3)c(C)o2)cc1 (stereo unspecified)	141 to 143
CSC1=Nc2cc(Cl)ccc2N(C)c2cscc21	156 to 158
O=C(Nc1ccccc1)Nc1ncc(Oc2ccc(Cl)cc2)c(N2CCOCC2)n1	229 to 231
COc1cc(NC(=O)C2C(=O)N(C)C(=O)N(C)C2=O)ccc1O	252 to 253
OCC1=CC=C(COc2cccc(O)c2)SS1	116
CCC(C)(C)c1ccc(Oc2cccc(C#N)c2C#N)c(C(C)(C)CC)c1	143 to 144
N#Cc1cc([N+](=O)[O-])ccc1N1CCNCC1CCO (stereo unspecified)	100 to 102
O=C(O)CCCCCCCC(=O)Nc1cc(Cl)ccc1O	117 to 118
CC(C)Cn1cnc2c(N)nc3cc(Br)ccc3c21	218 to 220
NS(=O)(=O)c1ccc(NC(=O)c2ccccc2SSc2ccccc2C(=O)O)cc1	276 to 278
CCCOc1ccccc1-c1cc(C)c(C(=O)O)c(=O)[nH]1	175 to 177
COc1ccc(C(=CNC(=O)c2sc3ccc(C(F)(F)F)cc3c2O)c2ccc(OC)cc2)cc1	178 to 183
N#CN=C(N)NCc1ccc2c(c1)Nc1nccnc1S2	246 to 248
Nc1cc(N2CCCC2)c(F)cc1[N+](=O)[O-]	115 to 116
CCn1nc(-c2ccccc2)c(C(C)=O)c(Nc2ccc(Br)c3cccnc23)c1=O	148 to 149
